Results published in patent publication US9145445B2 (priority 2003, dated 2015).
Values joined by “and” are separate entries in the source; they are usually repeats but may differ in a detail not shown here. Identical values can stand only once. Like-named read-outs stand apart in the source and are kept apart here. Where a SMILES comes first, the peptide text is derived from it.

Assays:
purified Pertussis Toxin = test: binding of purified PT to peptides immobilized on streptavidin sepharose; design: species or system Bordetella pertussis; settings: ~200 pmol peptide on streptavidin sepharose, 100 pmol purified PT, gel, silver staining
PT [1] = test: stability of PT/peptide complexes, BIAcore 2000; assay type: binding, Bordetella pertussis; settings: for pH range stability of the complex (stable): PT/peptide complex, instable at pH 2.5 or 10.5
Description: The stability of PT/peptide complexes were investigated using the BIAcore 2000 instrument under different pH and salt conditions that were shown before not to interfere with the PT hexamer stability. 500-1000 RU of the synthetic peptides were immobilized on BIAcore streptavidin chips. To allow binding of PT to the immobilized peptides, 20 nM purified PT in HEPES buffer was injected for 1 minute. After equilibration with HBS/EP running buffer (0.01 M HEPES pH 7.4, 0.15 M NaCl 3 mM EDTA 0.005% polysorbate 20 (v/v)) the PT/peptide complexes were washed by injection of • (a) 100 mM carbonate buffer at pH 10.5 and 9.5 • (b) 10 mM acetate buffer at pH 5.5, 5.0, 4.5, and 4.0 • (c) 10 mM glycine buffer at pH 3.0 and 2.5 • (d) 0.5, 1.0, 1.5, 2.0 M NaCl in 10 mM acetate buffer, pH 6.0, • (e) 0.5, 1.0, 1.5, 2.0 M NaCl in 50 mM Tris/HCl buffer, pH 8.5, • (f) 0.5, 1.0, 1.5, 2.0 M KCl in 10 mM acetate buffer, pH 6.0, • (g) 0.5, 1.0, 1.5, 2.0 M KCl in 50 mM Tris/HCl buffer, pH 8.5, • (h) 0.5, 1.0, 1.5, 2.0 M NaCl in 10 mM acetate buffer, pH 6.0, • (i) 0.5, 1.0, 1.5, 2.0 M NaCl in 50 mM Tris/HCl buffer, pH 8.5.
After the end of each buffer injection, the chip was equilibrated with HBS/EP running buffer. The loss of PT hexamer on the chip under the applied buffer conditions (difference of measured RU signal before and after buffer injection) reflects the PT/peptide complex stability.

PT [2] = test: estimation of peptides binding capacity (fraction of binding active peptide); design: species or system Bordetella pertussis; settings: 20 pmol sepharose-immobilized peptide, 100 pmol PT (500 nM); 1:1 binding assumed
Description: For estimation of peptides binding capacity 20 pmol of sepharose-immobilized peptides were incubated with an excess of 100 pmol PT in a volume of 200 μl HEPES buffer (corresponds to 500 nM PT). After washing, the fraction of peptide-streptavidin sepharose bound PT was quantified by gel analysis. This allows directly to calculate the fraction of binding active peptide under the applied conditions (assuming the PT/peptide binding ratio is 1:1). Under the assumption that a concentration of 500 nM PT is high enough to reach Bmax for all peptides. The values presented therein are estimations for the expectable binding capacities of the peptides. An exact evaluation of binding capacity (Bmax) and dissociation constant (KD) of the most suitable binder may also be performed.

[3] = system: PT immobilized on Streptavidin beads
[4] = system: chip immobilized biotinylated PT; settings: BIAcore streptavidin chip
From the text: The quality of the biotinylation reaction was controlled by analysis of the interaction of biotinylated PT with a BIAcore streptavidin chip using BIAcore instrument (BIAcore 2000).

PT [5] = assay type: binding, Bordetella pertussis
PT [6] = settings: phage display, Bogdan, et al.; cited from earlier work
[7] = system: PT immobilized on a CM5 chip; assay type: binding, Bordetella pertussis
PT [8] = test: reutilization of peptide sepharose for repeated PT binding and elution; design: species or system Bordetella pertussis; settings: 4 cycles of PT binding, carbonate pH 10.5 elution, 10 mM HCl regeneration
Description: For binding of PT each peptide streptavidin sepharose was incubated with 400 μl sample B (adjusted to pH 7.0-7.5 by addition of HC1) for 1 hour at RT and washed 4 times with 50 mM Tris/HC1, pH 7.5 (each 200 μl). PT was eluted by 4 consecutive elutions with 100 mM Carbonate buffer at pH 10.5 (each 20 μl). Subsequently the column matrices were regenerated by three washes with 10 mM HC1 (l×20 μl, 2×100 μl) and afterwards neutralized by two washes with 200 μl 50 mM Tris/HC1, pH 7.5. This binding, elution and regeneration procedure was applied to the peptide sepharose for three additional times. […] (FIG. 25). • 5. Large-scale FPLC-Purification of PT

PT [9] = assay type: binding, Bordetella pertussis; settings: input of 400 pmol peptide to 1 μl streptavidin sepharose

Sequence of PT immobilized on Streptavidin beads (P04977 35-269 limits assumed): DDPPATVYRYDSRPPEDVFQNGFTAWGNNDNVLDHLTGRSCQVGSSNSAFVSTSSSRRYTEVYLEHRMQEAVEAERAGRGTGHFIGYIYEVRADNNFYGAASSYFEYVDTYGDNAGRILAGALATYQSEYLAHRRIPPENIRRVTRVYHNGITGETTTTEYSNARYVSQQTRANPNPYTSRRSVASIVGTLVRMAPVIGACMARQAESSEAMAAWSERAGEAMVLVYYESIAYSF
Sequence of PT immobilized on Streptavidin beads (P04978 28-226 limits assumed, further chain): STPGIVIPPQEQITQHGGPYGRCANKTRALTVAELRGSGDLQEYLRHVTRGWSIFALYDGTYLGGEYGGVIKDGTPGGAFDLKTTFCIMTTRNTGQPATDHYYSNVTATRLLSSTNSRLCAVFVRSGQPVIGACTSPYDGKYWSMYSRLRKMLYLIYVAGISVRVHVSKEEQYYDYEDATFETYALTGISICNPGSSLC
Sequence of PT immobilized on Streptavidin beads (P04979 29-227 limits assumed, further chain): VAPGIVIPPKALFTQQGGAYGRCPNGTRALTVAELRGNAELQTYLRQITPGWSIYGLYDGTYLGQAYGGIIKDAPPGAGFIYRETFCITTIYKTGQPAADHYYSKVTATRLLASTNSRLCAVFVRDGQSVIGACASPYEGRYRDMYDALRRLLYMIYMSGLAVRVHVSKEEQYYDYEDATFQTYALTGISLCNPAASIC
Sequence of PT immobilized on Streptavidin beads (P0A3R5 43-152 limits assumed, further chain): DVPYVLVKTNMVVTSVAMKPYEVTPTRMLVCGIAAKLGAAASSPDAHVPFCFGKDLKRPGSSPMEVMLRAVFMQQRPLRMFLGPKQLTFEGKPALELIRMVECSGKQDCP
Sequence of PT immobilized on Streptavidin beads (P04981 35-133 limits assumed, further chain): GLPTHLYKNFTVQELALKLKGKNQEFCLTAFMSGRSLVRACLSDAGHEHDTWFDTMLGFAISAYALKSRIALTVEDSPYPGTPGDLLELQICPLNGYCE
Sequence of PT (P04977 35-269 limits assumed): as the sequence (P04977 35-269 limits assumed) above
Sequence of PT (P04978 28-226 limits assumed, further chain): as the sequence (P04978 28-226 limits assumed, further chain) above
Sequence of PT (P04979 29-227 limits assumed, further chain): as the sequence (P04979 29-227 limits assumed, further chain) above
Sequence of PT (P0A3R5 43-152 limits assumed, further chain): as the sequence (P0A3R5 43-152 limits assumed, further chain) above
Sequence of PT (P04981 35-133 limits assumed, further chain): as the sequence (P04981 35-133 limits assumed, further chain) above
Sequence of purified Pertussis Toxin (P04977 35-269 limits assumed): as the sequence (P04977 35-269 limits assumed) above
Sequence of purified Pertussis Toxin (P04978 28-226 limits assumed, further chain): as the sequence (P04978 28-226 limits assumed, further chain) above
Sequence of purified Pertussis Toxin (P04979 29-227 limits assumed, further chain): as the sequence (P04979 29-227 limits assumed, further chain) above
Sequence of purified Pertussis Toxin (P0A3R5 43-152 limits assumed, further chain): as the sequence (P0A3R5 43-152 limits assumed, further chain) above
Sequence of purified Pertussis Toxin (P04981 35-133 limits assumed, further chain): as the sequence (P04981 35-133 limits assumed, further chain) above
Sequence of PT immobilized on a CM5 chip (P04977 35-269 limits assumed): as the sequence (P04977 35-269 limits assumed) above
Sequence of PT immobilized on a CM5 chip (P04978 28-226 limits assumed, further chain): as the sequence (P04978 28-226 limits assumed, further chain) above
Sequence of PT immobilized on a CM5 chip (P04979 29-227 limits assumed, further chain): as the sequence (P04979 29-227 limits assumed, further chain) above
Sequence of PT immobilized on a CM5 chip (P0A3R5 43-152 limits assumed, further chain): as the sequence (P0A3R5 43-152 limits assumed, further chain) above
Sequence of PT immobilized on a CM5 chip (P04981 35-133 limits assumed, further chain): as the sequence (P04981 35-133 limits assumed, further chain) above
Sequence of chip immobilized biotinylated PT (P04977 35-269 limits assumed): as the sequence (P04977 35-269 limits assumed) above
Sequence of chip immobilized biotinylated PT (P04978 28-226 limits assumed, further chain): as the sequence (P04978 28-226 limits assumed, further chain) above
Sequence of chip immobilized biotinylated PT (P04979 29-227 limits assumed, further chain): as the sequence (P04979 29-227 limits assumed, further chain) above
Sequence of chip immobilized biotinylated PT (P0A3R5 43-152 limits assumed, further chain): as the sequence (P0A3R5 43-152 limits assumed, further chain) above
Sequence of chip immobilized biotinylated PT (P04981 35-133 limits assumed, further chain): as the sequence (P04981 35-133 limits assumed, further chain) above

Molecule: SGCVKKDELCARWDLVCCEPLECIYTSELYATCG [gurmarin 9n]
- binding to purified PT (purified Pertussis Toxin): clear binding
- NaCl in buffer that interferes with PT/peptide complex stability (PT [1]): 2.5 M
- pH range stability of the complex (stable) (PT [1]): 3-9 pH
- KCl stability of the complex (stable) (PT [1]; pH 8.5): strong sensitive to salt
- NaCl stability of the complex (stable) (PT [1]; pH 8.5): strong sensitive to salt
- Fraction of binding active peptide (PT [2]): >12.5%

Molecule: MGRGSHHHHHHARSSHCRHRNCHTITRGNMRIETPNNIRKDANAPKASAI [PP26 variant 5]
- target binding to PT in the presence of AP process fluids [3]: not reduced

Molecule: asialofetuin
- binding signal to immobilized PT [4]: ~400 RU
- unspecific binding to the control cell [4]: ~100 RU
- Amount of PT bound (PT [5]): ~8 pmol and ~16 pmol

Molecule: MGRGSHHHHHHARSTMNTNRMDIQRLMTNHVKRDSSPGSIDANAPKASAI [PP26 variant 6]
- target binding to PT in the presence of AP process fluids [3]: not reduced

Molecule: RSSHCRHRNCHTITRGNMRIETPNNIRKDA [pp26 5n]
- binding to purified PT (purified Pertussis Toxin): clear binding
- Fraction of binding active peptide (PT [2]): > 5%

Molecule: RSSHCRHRNCHTITRGNMRIETPNNIRKDAK [pp26 5c]
- binding to purified PT (purified Pertussis Toxin): clear binding

Molecule: NGSFSGC [3G8]
- PT-binding capacity (PT [6]): PT-binding capacity

Molecule: MHHHHHHSGSSSGSGCVKKDELCELAVDECCEPLECTKGDLGFRKCGSGSSGSS [gurmarin variant 19]
- target binding to PT in the presence of AP process fluids [3]: not influenced

Molecule: Pertussis toxin [PT]
- pH range over which Pertussis toxin hexamer is stable (BIAcore, buffers pH 2-10.5): 2.5-10.5 pH
- PT hexamer stability (%) (pH 2): 93%
- PT hexamer stability (%) (pH 2.5): 98%
- PT hexamer stability (%) (pH 3): 100%
- PT hexamer stability (%) (pH 4): 100%
- PT hexamer stability (%) (pH 4.5): 100%
- PT hexamer stability (%) (pH 5): 100%
- PT hexamer stability (%) (pH 5.5): 100%
- PT hexamer stability (%) (pH 8.5): 100%
- PT hexamer stability (%) (pH 9.6): 98%
- PT hexamer stability (%) (pH 10.5): 95%

Molecule: MGRGSHHHHHHARSNVIPLNEVWYDTGWDRPHRSRLSIDDDANAPKASAI [PP26 variant 9]
- target binding to PT in the presence of AP process fluids [3]: not reduced

Molecule: SGCVKKDELCELAIDECCEPLECTKGDLGFRKCG [gurmarin 19n]
- binding to purified PT (purified Pertussis Toxin): clear binding

Molecule: NGSFSGF [3G5]
- PT-binding capacity (PT [6]): PT-binding capacity

Molecule: CC[C@H](C)[C@H](NC(=O)[C@H](CO)NC(=O)[C@H](CC(C)C)NC(=O)[C@H](CCCNC(=N)N)NC(=O)[C@H](CO)NC(=O)[C@H](CCCNC(=N)N)NC(=O)[C@H](Cc1c[nH]cn1)NC(=O)[C@@H]1CCCN1C(=O)[C@H](CCCNC(=N)N)NC(=O)[C@H](CC(=O)O)NC(=O)[C@H](Cc1c[nH]c2ccccc12)NC(=O)CNC(=O)[C@@H](NC(=O)[C@H](CC(=O)O)NC(=O)[C@H](Cc1ccc(O)cc1)NC(=O)[C@H](Cc1c[nH]c2ccccc12)NC(=O)[C@@H](NC(=O)[C@H](CCC(=O)O)NC(=O)[C@H](CC(N)=O)NC(=O)[C@H](CC(C)C)NC(=O)[C@@H]1CCCN1C(=O)[C@@H](NC(=O)[C@@H](NC(=O)[C@H](CC(N)=O)NC(=O)[C@H](CO)NC(=O)[C@H](CCCNC(=N)N)NC(=O)COCCOCCNC(=O)CCCC[C@@H]1SC[C@@H]2NC(=O)N[C@@H]21)C(C)C)[C@@H](C)CC)C(C)C)[C@@H](C)O)C(=O)N[C@@H](CC(=O)O)C(=O)N[C@@H](CC(=O)O)C(=O)N[C@@H](CC(=O)O)C(=O)N[C@@H](C)C(=O)O [pp26 9n] (HELM PEPTIDE1{[O=C1N[C@H]2[C@H](CS[C@H]2CCCCC(=O)[*:2])N1].[O=C(COCCOCCN[*:1])[*:2]].R.S.N.V.I.P.L.N.E.V.W.Y.D.T.G.W.D.R.P.H.R.S.R.L.S.I.D.D.D.A}$$$$V2.0)
- Association rate constant kon [7]: 130000 M⁻¹ s⁻¹
- Dissociation rate constant koff [7]: 10^−3 s^−1

Molecule: SGCVKKDELCSQSVPMCCEPLECKWFNENYGICGS [gurmarin 15n]
- binding to purified PT (purified Pertussis Toxin): clear binding
- reusability of peptide loaded sepharose (PT [8]): may be re-utilized
- Amount of elutable peptide (effectively bound fraction of peptide) (PT [9]): 50 pmol
- pH range stability of the complex (stable) (PT [1]): 3-9 pH
- KCl stability of the complex (stable) (PT [1]; pH 6): sensitive to salt
- MgCl2 stability of the complex: Elution (PT [1]; pH 6): Elution ≧1M,
- MgCl2 stability of the complex: complete elution (PT [1]; pH 6): elution ≧2M
- NaCl stability of the complex (stable) (PT [1]; pH 6): sensitive to salt
- KCl stability of the complex (stable) (PT [1]; pH 8.5): sensitive to salt
- MgCl2 stability of the complex: complete elution (PT [1]; pH 8.5): elution ≧2M
- NaCl stability of the complex (stable) (PT [1]; pH 8.5): sensitive to salt

Molecule: DGSFSGF [3G2]
- PT-binding capacity (PT [6]): PT-binding capacity

Molecule: MHHHHHHSGSSSGSGCVKKDELCARWDLVCCEPLECIYTSELYATCGSGSSGSS [gurmarin variant 9]
- target binding to PT in the presence of AP process fluids [3]: not influenced

Molecule: RSWRDTRKLHMRHYFPLAIDSYWDHTLRDA [pp26 15n]
- binding to purified PT (purified Pertussis Toxin): clear binding
- pH range stability of the complex (stable) (PT [1]): 3-9 pH
- KCl stability of the complex (stable) (PT [1]; pH 6): 2 M
- MgCl2 stability of the complex (stable) (PT [1]; pH 6): to 2M
- NaCl stability of the complex (stable) (PT [1]; pH 6): 2 M
- KCl stability of the complex (stable) (PT [1]; pH 8.5): 2 M
- MgCl2 stability of the complex: complete elution (PT [1]; pH 8.5): not
- NaCl stability of the complex (stable) (PT [1]; pH 8.5): 2 M
- MgCl2 stability of the complex: Elution / destabilized (PT [1]; pH 8.5 (50 mM Tris/HCl)): Elution ≧1.5, M
- Fraction of binding active peptide (PT [2]): >12.5%

Molecule: SGCVKKDELCELAVDECCEPLECFQMGHGFKRCG [gurmarin 10n]
- binding to purified PT (purified Pertussis Toxin): clear binding
- Fraction of binding active peptide (PT [2]): > 5%

Molecule: MHHHHHHSGSSSGSGCVKKDELCELAVDECCEPLECFQMGHGFKRCGSGSSGSS [gurmarin variant 10]
- target binding to PT in the presence of AP process fluids [3]: not influenced
